Measurements taken from the NIST ThermoML archive (doi:10.1016/j.jct.2016.07.015).
Values joined by “and” are separate entries in the source; they are usually repeats but may differ in a detail not shown here. Identical values can stand only once.

Conditions: Crystal, Calculated from knudsen effusion weight loss

COc1cc(CO)ccc1O [4-hydroxy-3-methoxybenzyl alcohol]
Conditions | vapor or sublimation pressure
332.19 K | 0.000113 kPa and 0.0001121 kPa and 0.0001096 kPa
334.36 K | 0.0001475 kPa and 0.0001466 kPa and 0.0001413 kPa
336.15 K | 0.0001823 kPa and 0.0001755 kPa and 0.0001867 kPa
338.21 K | 0.0002375 kPa and 0.0002339 kPa and 0.0002403 kPa
340.27 K | 0.0003072 kPa and 0.0002982 kPa and 0.0003122 kPa
342.14 K | 0.0003845 kPa and 0.0003697 kPa and 0.0003916 kPa
344.21 K | 0.0005061 kPa and 0.0004935 kPa and 0.000506 kPa
346.27 K | 0.0006422 kPa and 0.0006234 kPa and 0.0006502 kPa
348.13 K | 0.0008066 kPa and 0.0007737 kPa and 0.0008145 kPa
350.15 K | 0.001038 kPa and 0.001007 kPa and 0.001064 kPa
